Source: patent publication US6737383B1, “Herbicidal oxadiazolidines” (priority 1999, dated 2004)

Legend:
bedstraw = test: Test B pre/postemergence bedstraw; format: in vivo, Galium aparine; details: Postemergence
In short: (§1)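 Test chemicals in a non-phytotoxic solvent mixture with surfactant were sprayed preemergence onto planted seeds and postemergence onto plants 2 to 18 cm tall (1- to 4-leaf stage). After twelve to sixteen days in a greenhouse, injury was visually rated against untreated controls from 0 (no effect) to 10 (complete control).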

blackgrass = test: Test B pre/postemergence blackgrass; format: in vivo, Alopecurus myosuroides
In short: as §1

surinam grass = test: Test B pre/postemergence surinam grass; format: in vivo, Brachiaria decumbens
In short: as §1

cocklebur = test: Test B pre/postemergence cocklebur; format: in vivo, Xanthium strumarium
In short: as §1

corn = test: Test B pre/postemergence corn; format: in vivo, Zea mays
In short: as §1

crabgrass = test: Test B pre/postemergence crabgrass; format: in vivo, Digitaria sanguinalis
In short: as §1

giant foxtail = test: Test B pre/postemergence giant foxtail; format: in vivo, Setaria faberii
In short: as §1

morningglory = test: Test B pre/postemergence morningglory; format: in vivo, Ipomoea hederacea
In short: as §1

pigweed = test: Test B pre/postemergence pigweed; format: in vivo, Amaranthus retroflexus
In short: as §1

rape = test: Test B pre/postemergence rape; format: in vivo, Brassica napus
In short: as §1

soybean = test: Test B pre/postemergence soybean; format: in vivo, Glycine max
In short: as §1

sugar beet = test: Test B pre/postemergence sugar beet; format: in vivo, Beta vulgaris
In short: as §1

velvetleaf = test: Test B pre/postemergence velvetleaf; format: in vivo, Abutilon theophrasti
In short: as §1

wheat = test: Test B pre/postemergence wheat; format: in vivo, Triticum aestivum
In short: as §1

wild oat = test: Test B pre/postemergence wild oat; format: in vivo, Avena fatua
In short: as §1

purple nutsedge = test: Test B pre/postemergence purple nutsedge; format: in vivo, Cyperus rotundus
In short: as §1

rice = test: Test B flood test rice; format: in vivo, Oryza sativa
In short: (§2)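 Read-out is a visual response score from 0 (no effect) to 10 (complete control), assigned by comparison with untreated controls. Treatment was applied at the 2-leaf stage, and plants stayed in the greenhouse for twelve to sixteen days before scoring.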

smallflower flatsedge = test: Test B flood test smallflower flatsedge; format: in vivo, Cyperus difformis
In short: as §2

duck salad = test: Test B flood test duck salad; format: in vivo, Heteranthera limosa; details: for Plant response rating, Ducksalad: scale 0 to 10, 0 is no effect, 10 is complete control; for Ducksalad plant response rating: scale of 0 to 10 where 0 is no effect and 10 is complete control
In short: as §2

bamyardgrass = test: Test B flood test barnyardgrass; format: in vivo, Echinochloa crus-galli; details: for Plant response rating, Barnyardgrass: scale 0 to 10, 0 is no effect, 10 is complete control; for Barnyardgrass plant response rating: scale of 0 to 10 where 0 is no effect and 10 is complete control
In short: as §2

[1] = Postemergence, Rate 125 g/ha, scale 0 to 10, 0 is no effect, 10 is complete control
[2] = Postemergence, Rate 250 g/ha, scale 0 to 10, 0 is no effect, 10 is complete control
[3] = Postemergence, Rate 500 g/ha, scale of 0 to 10 where 0 is no effect and 10 is complete control
[4] = Preemergence, Rate 62 g/ha, scale 0 to 10 (0 no effect, 10 complete control)
[5] = Preemergence, Rate 125 g/ha, scale of 0 to 10 where 0 is no effect and 10 is complete control
[6] = Preemergence, Rate 250 g/ha, scale of 0 to 10 where 0 is no effect and 10 is complete control
[7] = Preemergence, Rate 500 g/ha, scale 0 to 10, 0 is no effect, 10 is complete control
[8] = Rate 62 g/ha, Postemergence, scale of 0 to 10 where 0 is no effect and 10 is complete control
[9] = Preemergence, Rate 250 g/ha, scale 0 to 10, 0 is no effect, 10 is complete control
[10] = Postemergence section (flood test species), Rate 500 g/ha, scale of 0 to 10 where 0 is no effect and 10 is complete control
[11] = flood test species, listed under Postemergence, Rate 250 g/ha, scale 0 to 10, 0 is no effect, 10 is complete control
[12] = Postemergence (flood test), Rate 125 g/ha
[13] = Postemergence section (flood test species), Rate 500 g/ha
[14] = Rate 62 g/ha, Postemergence (flood test species)
[15] = flood test species, listed under Postemergence, Rate 250 g/ha

## CC(C)N(C(=O)n1oc(=O)n(C2CCOCC2)c1=O)c1ccccc1 [Compound 416]
bedstraw; Rate 125 g/ha, scale 0 to 10, 0 is no effect, 10 is complete control
  Plant response rating, Bedstraw: 3
bedstraw; Rate 500 g/ha, scale of 0 to 10 where 0 is no effect and 10 is complete control
  Bedstraw plant response rating: 7
blackgrass; [1]
  Plant response rating, Blackgrass: 9
blackgrass; [2]
  Plant response rating, Blackgrass: 9
blackgrass; [3]
  Blackgrass plant response rating: 9
blackgrass; [4]
  Plant response rating, Blackgrass: 8
blackgrass; [5]
  Plant response rating, Blackgrass: 9
blackgrass; [6]
  Blackgrass plant response rating: 10
blackgrass; [7]
  Blackgrass plant response rating: 10
blackgrass; [8]
  Blackgrass plant response rating: 6
Surinam grass; [1]
  Plant response rating, B. signalgrass: 6
Surinam grass; [2]
  Plant response rating, B. signalgrass: 8
Surinam grass; [3]
  B. signalgrass plant response rating: 9
Surinam grass; [4]
  Plant response rating, B. signalgrass: 7
Surinam grass; [5]
  Plant response rating, B. signalgrass: 7
Surinam grass; [6]
  B. signalgrass plant response rating: 7
Surinam grass; Preemergence, Rate 500 g/ha, scale of 0 to 10 where 0 is no effect and 10 is complete control
  B. signalgrass plant response rating: 9
Surinam grass; [8]
  B. signalgrass plant response rating: 2
cocklebur; [1]
  Plant response rating, Cocklebur: 0
cocklebur; [2]
  Plant response rating, Cocklebur: 0
cocklebur; [3]
  Cocklebur plant response rating: 5
cocklebur; [4]
  Plant response rating, Cocklebur: 0
cocklebur; [5]
  Plant response rating, Cocklebur: 0
cocklebur; [9]
  Cocklebur plant response rating: 0
cocklebur; [7]
  Cocklebur plant response rating: 4
cocklebur; [8]
  Cocklebur plant response rating: 0
corn; [1]
  Plant response rating, Corn: 0
corn; [2]
  Plant response rating, Corn: 5
corn; [3]
  Corn plant response rating: 7
corn; [4]
  Plant response rating, Corn: 0
corn; [5]
  Plant response rating, Corn: 0
corn; [9]
  Corn plant response rating: 3
corn; [7]
  Corn plant response rating: 6
corn; [8]
  Corn plant response rating: 0
crabgrass; [1]
  Plant response rating, Crabgrass: 6
crabgrass; [2]
  Plant response rating, Crabgrass: 9
crabgrass; [3]
  Crabgrass plant response rating: 9
crabgrass; [4]
  Plant response rating, Crabgrass: 7
crabgrass; [5]
  Plant response rating, Crabgrass: 10
crabgrass; [9]
  Crabgrass plant response rating: 10
crabgrass; [7]
  Crabgrass plant response rating: 10
crabgrass; [8]
  Crabgrass plant response rating: 2
Giant foxtail; [1]
  Plant response rating, Giant foxtail: 8
Giant foxtail; [2]
  Plant response rating, Giant foxtail: 9
Giant foxtail; [3]
  Giant foxtail plant response rating: 9
Giant foxtail; [4]
  Plant response rating, Giant foxtail: 8
Giant foxtail; [5]
  Plant response rating, Giant foxtail: 10
Giant foxtail; [9]
  Giant foxtail plant response rating: 10
Giant foxtail; [7]
  Giant foxtail plant response rating: 10
Giant foxtail; [8]
  Giant foxtail plant response rating: 7
morningglory; [2]
  Plant response rating, Morningglory: 9
morningglory; [3]
  Morningglory plant response rating: 9
morningglory; [4]
  Plant response rating, Morningglory: 0
morningglory; [5]
  Plant response rating, Morningglory: 4
morningglory; [9]
  Morningglory plant response rating: 6
morningglory; [7]
  Morningglory plant response rating: 8
pigweed; [2]
  Plant response rating, Redroot pigweed: 2
pigweed; [3]
  Redroot pigweed plant response rating: 7
pigweed; [4]
  Plant response rating, Redroot pigweed: 7
pigweed; [5]
  Plant response rating, Redroot pigweed: 9
pigweed; [9]
  Redroot pigweed plant response rating: 10
pigweed; [7]
  Redroot pigweed plant response rating: 10
rape; [2]
  Plant response rating, Rape: 3
rape; [3]
  Rape plant response rating: 3
rape; [4]
  Plant response rating, Rape: 7
rape; [5]
  Plant response rating, Rape: 9
rape; [9]
  Rape plant response rating: 9
rape; [7]
  Rape plant response rating: 10
soybean; [2]
  Plant response rating, Soybean: 6
soybean; [3]
  Soybean plant response rating: 7
soybean; [4]
  Plant response rating, Soybean: 0
soybean; [5]
  Plant response rating, Soybean: 4
soybean; [9]
  Soybean plant response rating: 7
soybean; [7]
  Soybean plant response rating: 9
Sugar beet; [2]
  Plant response rating, Sugarbeets: 0
Sugar beet; [3]
  Sugarbeets plant response rating: 2
Sugar beet; [4]
  Plant response rating, Sugarbeets: 3
Sugar beet; [5]
  Plant response rating, Sugarbeets: 4
Sugar beet; [9]
  Sugarbeets plant response rating: 7
Sugar beet; [7]
  Sugarbeets plant response rating: 9
velvetleaf; [2]
  Plant response rating, Velvetleaf: 0
velvetleaf; [3]
  Velvetleaf plant response rating: 6
velvetleaf; [4]
  Plant response rating, Velvetleaf: 0
velvetleaf; [5]
  Plant response rating, Velvetleaf: 3
velvetleaf; [9]
  Velvetleaf plant response rating: 6
velvetleaf; [7]
  Velvetleaf plant response rating: 8
wheat; [3]
  Wheat plant response rating: 7
wheat; [4]
  Plant response rating, Wheat: 2
wheat; [5]
  Plant response rating, Wheat: 4
wheat; [9]
  Wheat plant response rating: 7
wheat; [7]
  Wheat plant response rating: 10
Wild oat; [3]
  Wild oats plant response rating: 7
Wild oat; [4]
  Plant response rating, Wild oats: 6
Wild oat; [5]
  Plant response rating, Wild oats: 7
Wild oat; [9]
  Wild oats plant response rating: 8
Wild oat; [7]
  Wild oats plant response rating: 10
Purple nutsedge; [2]
  Plant response rating, Nutsedge: 0
Purple nutsedge; [3]
  Nutsedge plant response rating: 0
Purple nutsedge; [4]
  Plant response rating, Nutsedge: 0
Purple nutsedge; [5]
  Plant response rating, Nutsedge: 0
Purple nutsedge; [9]
  Nutsedge plant response rating: 3
Purple nutsedge; [7]
  Nutsedge plant response rating: 4
rice; [10]
  Rice plant response rating: 0
rice; [11]
  Plant response rating, Rice: 0
Smallflower flatsedge; [10]
  S. Flatsedge plant response rating: 0
Smallflower flatsedge; [11]
  Plant response rating, S. Flatsedge: 0
Duck salad; [12]
  Plant response rating, Ducksalad: 0
Duck salad; [13]
  Ducksalad plant response rating: 0
Duck salad; [14]
  Ducksalad plant response rating: 0
Duck salad; [15]
  Plant response rating, Ducksalad: 0
bamyardgrass; [12]
  Plant response rating, Barnyardgrass: 0
bamyardgrass; [13]
  Barnyardgrass plant response rating: 0
bamyardgrass; [14]
  Barnyardgrass plant response rating: 0
bamyardgrass; [15]
  Plant response rating, Barnyardgrass: 0
